Measured values: US12139508B2, “Steroid derivative regulators, method for preparing the same, and uses thereof” (JIANGSU HANSOH PHARMACEUTICAL GROUP CO., LTD., priority 2018, dated 2024)
Like-named read-outs stand apart in the source and are kept apart here.

Experiments:
[1] = Pharmacokinetic assay in Balb/c mice (plasma and brain tissue); assay type: in vivo; conditions: mouse, po, 5 mg/kg p.o., male Balb/c mice; for AUC(0-t): read-out: Area under curve AUC0-t; for AUC(0-inf): read-out: Area under curve AUC0-∞; for half-life: read-out: Half-life t1/2 (converted); for MRT: read-out: Mean residence time MRT; for Tmax: read-out: Peak time tmax; for Cmax: read-out: Plasma concentration Cmax
Outline: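 Compound levels in plasma and brain were measured by LC/MS/MS with an internal standard after protein precipitation with acetonitrile. Samples came from overnight-fasted male Balb/c mice given 5 mg/kg p.o., with cardiac blood drawn at 0–24 h. Pharmacokinetic parameters were then calculated.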

[2] = test system: PTZ-induced epilepsy model in CD-1 mice; test: In vivo pharmacodynamic test in the PTZ-induced epilepsy model in mice; conditions: dose 3 mpk p.o., PTZ 120 mg/kg s.c., 30 min observation
Protocol: The PTZ-induced epilepsy model in CD-1 mice was established, and the antiepileptic effect of the compounds of Example 3, Example 60, Example 61 and Example 74 was evaluated using this model.
50 male CD-1 mice were purchased from Beijing Vital River Laboratory Animal Technology Co. Ltd. The test animals were adapted at the animal room in the third building of Shanghai ChemPartner Co., Ltd for 7 days before the test. The average body weight of the animals on the test day was 32.2±0.2 grams. Feeding environment: 5 animals/cage, room temperature 23±2° C., 12/12 hours of light and dark cycle, free acess to food and water.
4.2.1 Test Equipments • 1 ml sterile disposable syringe with needle (purchased from Zhejiang Kangdelai Medical Devices Co., Ltd.) • Pipette: Eppendorf Research Plus (100-1000 L) • Vortex mixer: Kylin-Bell Vortex 5 • Ultrasonic instrument: JL-360 ultrasonic cleaner • Balance: METTLER TOLEDO™ XS204 precision balance (note: METTLER TOLEDO™ is a kind of balance used in labs and industry) • Balance: METTLER TOLEDO™ XS6002S electronic balance (note: METTLER TOLEDO™ is a kind of balance used in labs and industry) • Plexiglass box: 25 cm length*15 cm width*15 cm height with one opaque side wall, custom made by Suzhou Fengshi Laboratory Animal Equipment Co., Ltd • 3-channel timer: Oregon/Model NO.WB-388. 4.2.2 Test Animal Grouping • 1) Vehicle/PTZ: 0.5% CMC-Na+1% Tween-80 (10 ml/kg, p.o.), administered 0.5 hr before the PTZ administration; PTZ ([…], s.c.), administered before the test; • 2) 3 mg/kg of the compounds of Examples/PTZ: the compounds of Example 3, Example 60, Example 61 and Example 74 (3 mg/kg, 10 ml/kg, p.o.), administered 0.5 hr before the PTZ administration; PTZ ([…], s.c.), administered before the test. 4.3 Experimental Procedures 4.3.1 Solvent Formulation 1) 0.5% CMC-Na+1% Tween-80 (Administration Volume: 10 mL/Kg):
4.4 Adaptation to the Environment
The mice were randomly grouped, marked and weighed; 10 mice per group. The test compound was administered orally at an administration volume of 10 mL/kg 30-60 minutes before the PTZ administration.
PTZ (120 mg/kg) was administrated subcutaneously before the test observation, and this time point was recorded as the observation start point; after the administration of PTZ, the animal was immediately placed in the observation box and observed for 30 minutes, and the followings were recorded: a) the incubation period of the first clonic seizure, b) the incubation period of the first generalized tonic seizure, c) the number of clonic seizures, d) the number of generalized tonic seizures, e) the time when the animal died.
All measurement data were expressed as Mean±SEM, and analysed with Prism 6.0 statistical software.

forced-swimming mice = test: In vivo pharmacodynamic test in the forced swimming model in mice; conditions: ICR mice; for Mean (immobility, %): 100*floating time/240 s
Protocol: The antidepressant effect of the compound was evaluated by the forced swimming model in mice.
Male ICR mice (25-35 g) were adapted in the test environment for 3 days before the forced swimming test.
According to the test design, the mice were randomly grouped on the day before the test according to body weight, with 12 mice in each group. Before the test, the compounds of each example were administered intragastrically according to the Tmax thereof in the brain in mice pharmacokinetic test as follows: • 1) Model group (0.5% CMC-Na-1% Tween 80 solution, p.o., 10 mL/kg); • 2) Compounds of Example 2, Example 3, Example 5, Example 6, Example 9, Examples 59-63, Examples 71-73, Example 103, Example 135, Example 137, Example 145 and Example 146 (10 mg/kg, p.o., 10 mL/kg); Example 13 and Example 74 (5 mg/kg, p.o., 5 mL/kg).
When being administered, the compounds of each example were suspended in 0.5% CMC-Na+1% Tween 80 solution to the desired concentration.
0.5-1 hour after administration, ICR mice were placed in a forced swimming device (transparent glass drum (water depth 18 cm, water temperature 25-26° C.), one mouse per tank) and forced to swim for 6 minutes. The forced swimming device recorded the floating time of the ICR mice during the entire 6 minutes, and the data of the latter four minutes were used for data analysis. The mice were taken out immediately after the swimming test, wiped dry and put back in their original cages.
Note: The criterion for determining the immobility time is that the mouse stops struggling in water and floats, and there are only slight limb movements to keep the head floating on the water.
3.4 Data Analysis Floating time percentage=100*floating time/240 s.

SMILES	AUC(0-t) ([1]; brain tissue)	AUC(0-inf) ([1]; brain tissue)	half-life ([1]; brain tissue)	MRT ([1]; brain tissue)	Tmax ([1]; brain tissue)	Cmax ([1]; brain tissue)	AUC(0-t) ([1]; plasma)	AUC(0-inf) ([1]; plasma)	half-life ([1]; plasma)	MRT ([1]; plasma)	Tmax ([1]; plasma)	Cmax ([1]; plasma)	Incubation period of the clonic seizure, Mean ± SEM [2]	Incubation period of the generalized tonic seizure, Mean [2]	Mortality rate [2]	Number of clonic seizures, Mean [2]	Number of generalized tonic seizures, Mean [2]	Time when the animal died, Mean [2]	other results
C[C@@H]1C[C@H](C(=O)Cn2nccn2)[C@@]2(C)CC[C@H]3[C@@H](CC[C@@H]4C[C@](C)(O)CC[C@@H]43)[C@H]12 [Example 61, 1-((3R,5R,8R,9R,10S,13S,14S,15R,17S)-3-Hydroxy-3,13,15-trimethylhexadecahydro-1H-cyclopenta[a]phenanthren-17-yl)-2-(2H-1,2,3-triazol-2-yl)ethan-1-one]	657 ng·h/mL	676 ng·h/mL	3.95 h	1.41 h	0.5 h	711 ng/mL	588 ng·h/mL	605 ng·h/mL	3.27 h	1.48 h	0.5 h	525 ng/mL	841.4 ± 179.8 s	1497.4 ± 124.3 s	40%	1.9 ± 0.4	0.5 ± 0.2	1573.1 ± 117.9 s	Mean (immobility, %) (forced-swimming mice; dose 10 mpk p.o.): 35.75%; Immobility time during the latter four minutes compared with that of the model group (forced-swimming mice; forced swimming): significantly different
Cc1nnn(CC(=O)[C@H]2C[C@@H](C3CC3)[C@H]3[C@@H]4CC[C@@H]5C[C@](C)(O)CC[C@@H]5[C@H]4CC[C@@]32C)n1 [Example 74, 1-((3R,5R,8R,9R,10S,13S,14S,15S,17S)-15-Cyclopropyl-3-hydroxy-3,13-dimethylhexadecahydro-TH-cyclopenta[a]phenanthren-17-yl)-2-(5-methyl-2H-tetrazol-2-yl)ethan-1-one]	5850 ng·h/mL	6510 ng·h/mL	2.28 h	3.82 h	1 h	1520 ng/mL	7160 ng·h/mL	8600 ng·h/mL	3.06 h	4.59 h	0.5 h	2140 ng/mL	635.4 ± 149.9 s	1506.8 ± 149.8 s	30%	1.8 ± 0.3	0.3 ± 0.2	1618.1 ± 121.3 s	Mean (immobility, %) (forced-swimming mice; dose 5 mpk p.o.): 38.00%
